Patent US7550451B2, “Progesterone receptor modulators with increased antigonadotropic activity for female birth control and hormone replacement therapy” (Bayer Schering Pharma AG, priority 2002, dated 2009)

Key:
adult female rats = experiment: Nidation-inhibiting test (antifertile effects in the perinidation phase); assay type: in vivo; conditions: day 5-7 of pregnancy, rat
Method: The determination of the progesterone-antagonistic activities was carried out on adult female rats in the nidation-inhibiting test. The principle of the test is described as follows: progesterone preserves pregnancy in all stages. An early-abortive action can accordingly be expected from competitive progesterone antagonists. Female rats (Schoe strain: WIST Tierzucht GmbH Schönwalde) with a weight of 180-200 g were subjected daily to a cycle control and paired up in proestrus. The beginning of pregnancy was determined by detecting sperm in the vaginal smear on the same day (=day 1 of pregnancy=d1 p.c.). From the 5th-7th day of pregnancy, the test substances were injected subcutaneously daily. On the 9th day, vaginal smears were taken, then the animals were autopsied and the uteri were prepared. The degeneration of implants and pathological, hemorrhagic and otherwise abnormal nidation sites were counted as abortions and are shown in Table 2.

Progesterone receptor = biological target: T1, Progesterone receptor (Oryctolagus cuniculus, UniProt P06186); experiment: Receptor binding affinity, progesterone receptor (competitive binding, 3H-ORG 2058); conditions: Progesterone = 100%; uterus cytosol of estradiol-primed rabbit
T1 construct: Uterus cytosol of the estradiol-primed rabbit; from tissue; host or cells: uterus cytosol of estradiol-primed rabbit
T1 sequence (P06186 1-930): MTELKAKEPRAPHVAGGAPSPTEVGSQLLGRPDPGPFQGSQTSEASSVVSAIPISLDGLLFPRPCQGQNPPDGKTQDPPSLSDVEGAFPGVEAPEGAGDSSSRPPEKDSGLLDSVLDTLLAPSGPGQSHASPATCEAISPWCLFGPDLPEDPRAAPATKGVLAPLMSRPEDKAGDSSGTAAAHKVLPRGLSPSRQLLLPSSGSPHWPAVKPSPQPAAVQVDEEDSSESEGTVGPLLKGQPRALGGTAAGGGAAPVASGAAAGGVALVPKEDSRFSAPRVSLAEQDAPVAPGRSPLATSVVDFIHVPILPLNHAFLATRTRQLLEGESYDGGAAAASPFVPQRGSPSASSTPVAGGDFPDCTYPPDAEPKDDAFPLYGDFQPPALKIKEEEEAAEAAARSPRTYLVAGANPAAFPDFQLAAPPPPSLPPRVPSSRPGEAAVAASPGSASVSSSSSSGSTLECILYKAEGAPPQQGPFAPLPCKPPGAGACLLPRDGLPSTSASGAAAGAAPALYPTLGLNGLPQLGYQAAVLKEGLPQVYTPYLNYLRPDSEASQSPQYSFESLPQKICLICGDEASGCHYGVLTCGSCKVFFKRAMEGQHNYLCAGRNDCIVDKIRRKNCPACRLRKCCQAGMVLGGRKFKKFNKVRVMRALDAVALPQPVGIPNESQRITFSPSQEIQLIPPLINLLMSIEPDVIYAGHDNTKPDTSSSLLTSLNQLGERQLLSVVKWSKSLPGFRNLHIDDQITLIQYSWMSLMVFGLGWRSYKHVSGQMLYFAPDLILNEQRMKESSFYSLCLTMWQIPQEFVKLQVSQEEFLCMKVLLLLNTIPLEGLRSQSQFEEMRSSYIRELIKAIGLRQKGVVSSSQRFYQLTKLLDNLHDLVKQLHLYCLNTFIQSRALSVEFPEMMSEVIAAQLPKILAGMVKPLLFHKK
Method: (§1) The receptor binding affinity was determined by competitive binding of a specifically binding ^3H-labeled hormone (tracer) and the compound to be tested on receptors in the cytosol from animal target organs. In this case, receptor saturation and reaction equilibrium were sought.
(§2) The tracers and increasing concentrations of the compound to be tested (competitor) were co-incubated with the receptor-containing cytosol fraction at 0-4° C. over 18 hours. After separation of the unbonded tracer with carbon-dextran suspension, the receptor-bonded tracer portion was measured for each concentration, and the IC50 was determined from the concentration sequence. As a quotient of the IC50 values of the reference substance and the compound to be tested (×100%), the relative molar binding affinity (RBA) was calculated (RBA of the reference substance=100%).
Uterus cytosol of the estradiol-primed rabbit; homogenized in TED buffer (20 mmol of Tris/HCl, pH 7.4; 1 mmol of ethylenediamine tetraacetate, 2 mmol of dithiothreitol) with 250 mmol of saccharose; stored at −30° C. Tracer: ^3H-ORG 2058, 5 nmol; reference substance: progesterone.

Glucocorticoid receptor = biological target: T2, Glucocorticoid receptor (Rattus norvegicus, UniProt P06536); experiment: Receptor binding affinity, glucocorticoid receptor (competitive binding, 3H-dexamethasone); conditions: Dexamethasone = 100%; thymus cytosol of adrenalectomized rat
T2 construct: Thymus cytosol of the adrenalectomized rat; from tissue; host or cells: thymus cytosol of adrenalectomized rat
T2 sequence (P06536 1-795): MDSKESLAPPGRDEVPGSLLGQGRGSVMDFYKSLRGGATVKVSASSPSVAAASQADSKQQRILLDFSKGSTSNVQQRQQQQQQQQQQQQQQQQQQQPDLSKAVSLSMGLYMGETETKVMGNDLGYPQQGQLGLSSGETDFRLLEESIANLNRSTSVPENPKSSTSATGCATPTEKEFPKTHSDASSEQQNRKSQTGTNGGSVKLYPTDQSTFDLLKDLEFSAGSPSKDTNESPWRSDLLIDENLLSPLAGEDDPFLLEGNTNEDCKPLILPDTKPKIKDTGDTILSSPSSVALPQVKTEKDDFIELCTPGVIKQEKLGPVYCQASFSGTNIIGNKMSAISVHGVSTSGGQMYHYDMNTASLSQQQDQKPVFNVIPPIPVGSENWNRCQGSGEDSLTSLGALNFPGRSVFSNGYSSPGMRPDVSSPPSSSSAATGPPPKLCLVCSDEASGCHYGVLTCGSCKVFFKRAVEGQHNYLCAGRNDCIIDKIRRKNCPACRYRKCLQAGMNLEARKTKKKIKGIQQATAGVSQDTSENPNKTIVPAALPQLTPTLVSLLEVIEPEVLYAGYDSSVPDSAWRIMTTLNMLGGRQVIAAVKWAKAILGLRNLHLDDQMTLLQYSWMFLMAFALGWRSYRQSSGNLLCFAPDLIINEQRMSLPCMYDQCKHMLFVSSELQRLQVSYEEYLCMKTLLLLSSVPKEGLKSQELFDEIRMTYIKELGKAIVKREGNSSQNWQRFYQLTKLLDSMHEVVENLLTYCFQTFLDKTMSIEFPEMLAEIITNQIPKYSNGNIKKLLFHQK
Method: as §1, §2
Thymus cytosol of the adrenalectomized rat, thymi stored at −30° C.; buffer: TED. Tracer: ^3H-Dexamethasone, 20 nmol; reference substance: dexamethasone.

Androgen receptor = biological target: T3, Androgen receptor (Rattus norvegicus, UniProt P15207); experiment: Receptor binding affinity, androgen receptor (competitive binding, 3H-metribolone); conditions: prostate cytosol of castrated rat; for AR relative molar binding affinity (RBA) a) against RU 1881: reference RU 1881 (metribolone); for AR relative molar binding affinity (RBA) b) against dihydrotestosterone (DHT): reference dihydrotestosterone
T3 construct: Prostate cytosol of the castrated rat; from tissue; host or cells: prostate cytosol of castrated rat
T3 sequence (P15207 1-902): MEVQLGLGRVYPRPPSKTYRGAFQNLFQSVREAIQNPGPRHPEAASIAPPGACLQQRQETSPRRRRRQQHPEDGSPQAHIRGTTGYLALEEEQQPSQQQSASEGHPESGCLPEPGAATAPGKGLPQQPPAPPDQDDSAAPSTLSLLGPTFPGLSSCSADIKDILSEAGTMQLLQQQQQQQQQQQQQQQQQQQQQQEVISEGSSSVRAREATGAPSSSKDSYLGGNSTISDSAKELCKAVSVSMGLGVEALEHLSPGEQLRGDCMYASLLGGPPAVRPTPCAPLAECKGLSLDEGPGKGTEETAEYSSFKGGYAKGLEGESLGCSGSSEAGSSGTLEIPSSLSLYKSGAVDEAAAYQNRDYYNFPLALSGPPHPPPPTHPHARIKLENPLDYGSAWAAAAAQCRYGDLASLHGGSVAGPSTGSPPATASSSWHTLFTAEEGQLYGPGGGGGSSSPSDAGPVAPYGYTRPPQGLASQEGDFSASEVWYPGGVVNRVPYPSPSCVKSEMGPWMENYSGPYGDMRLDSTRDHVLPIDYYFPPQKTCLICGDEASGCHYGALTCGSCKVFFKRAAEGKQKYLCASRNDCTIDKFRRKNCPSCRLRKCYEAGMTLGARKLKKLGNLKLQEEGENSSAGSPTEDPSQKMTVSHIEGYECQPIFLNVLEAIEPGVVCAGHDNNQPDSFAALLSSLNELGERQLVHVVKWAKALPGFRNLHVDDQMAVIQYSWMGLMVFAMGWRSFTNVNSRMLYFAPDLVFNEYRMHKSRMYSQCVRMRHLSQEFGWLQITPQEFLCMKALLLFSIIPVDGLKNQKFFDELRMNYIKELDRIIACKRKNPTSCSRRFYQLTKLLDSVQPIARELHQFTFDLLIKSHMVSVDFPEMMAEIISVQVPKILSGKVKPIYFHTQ
Method: as §1, §2
Prostate cytosol of the castrated rat; prostates stored at −30° C.; buffer: TED with 10% glycerol as well as 2 μmol of triamcinolone acetonide. Tracer: ^3H-metribolone 4 nmol; reference substances: metribolone (RU 1881) or 5α-dihydrotestosterone.

Row | SMILES | Rate of Animals with Complete Inhibition of Nidation (adult female rats; 0.3 mg/animal/day s.c.) | Rate of Animals with Complete Inhibition of Nidation (adult female rats; 1.0 mg/animal/day s.c.) | Rate of Animals with Complete Inhibition of Nidation (adult female rats; 3.0 mg/animal/day s.c.) | PR relative molar binding affinity (RBA) (Progesterone receptor) | GR relative molar binding affinity (RBA) (Glucocorticoid receptor) | AR relative molar binding affinity (RBA) a) against RU 1881 (Androgen receptor) | AR relative molar binding affinity (RBA) b) against dihydrotestosterone (DHT) (Androgen receptor)
1 | CC#C[C@]1(O)CC[C@H]2[C@@H]3CCC4=CC(=O)CCC4=C3[C@@H](c3ccc(N(C)C)cc3)C[C@@]21C [RU 38 486, reference compound] | 0/5 | 2/5 | 5/5 | – | – | – | –
2 | CO[C@H]1CC[C@H]2[C@@H]3CCC4=CC(=O)CCC4=C3[C@@H](c3ccc(/C=N/O)cc3)C[C@]12C [Example 5, 4-(17β-Methoxy-3-oxoestra-4,9-dien-11β-yl)benzaldehyde-1(E)-oxime] | – | 0/4 | – | 159% | 14% | a) 21% | b) 32%
3 | CC1(O)CCC2C3CCC4=C(Br)C(=O)CCC4=C3C(c3ccc(C=NO)cc3)CC21C (stereo not drawn) [Example 6, 4-(4′-Bromo-17β-hydroxy-17α-methyl-3-oxoestra-4,9-dien-11β-yl)benzaldehyde-1(E)-oxime] | – | 5/5 | – | 106% | 0.76% | a) 14% | b) 22%
4 | CCO[C@H]1CC[C@H]2[C@@H]3CCC4=CC(=O)CCC4=C3[C@@H](c3ccc(/C=N/O)cc3)C[C@]12C [Example 15, 4-(17β-Ethoxy-3-oxoestra-4,9-dien-11β-yl)benzaldehyde-1(E)-oxime] | – | – | – | 143% | 17% | a) 13% | b) 21%
5 | CC(=O)O[C@H]1CC[C@H]2[C@@H]3CCC4=C(Br)C(=O)CCC4=C3[C@@H](c3ccc(/C=N/O)cc3)C[C@]12C [Example 13, 4-(17β-Acetoxy-4′-bromo-3-oxoestra-4,9-dien-11β-yl)benzaldehyde-1-(E)oxime] | – | – | – | 45% | 0.35% | a) 6% | b) 10%
6 | CC12CC(c3ccc(C=NO)cc3)C3=C4CCC(=O)C(Br)=C4CCC3C1CCC2(O)C(F)(F)F (stereo not drawn) [Example 8, 4-(4′-Bromo-17β-hydroxy-17α-trifluoromethyl-3-oxoestra-4,9-dien-11β-yl)benzaldehyde-1(E)-oxime] | – | – | – | 87% | 1.8% | a) 7.8% | b) 11.8%
7 | CC12CC(c3ccc(C=NO)cc3)C3=C4CCC(=O)C=C4CCC3C1C=CC2O (stereo not drawn) [Example 12, 4-(17β-Hydroxy-3-oxoestra-4,9,15-trien-11β-yl)benzaldehyde-1(E)-oxime] | – | – | – | 38% | 5% | a) 22% | b) 34%
